Measured values taken from patent publication US20220016079A1, “COMBINATION TREATMENT OF HIV INFECTIONS” (priority 2018, published 2022).

Key:
[1] = tested on: latent HIV-1 in resting CD4+ T cells; experiment: Ex vivo HIV-1 reactivation in human resting CD4+ T cells from ART-treated HIV-1-infected humanized BLT mice (HIV RNA in supernatant); type: cell-based
Procedure: The efficacy of IAPa, ICI or IAPa/ICI combinations in reversing HIV-1 latency was tested in resting CD4+ T cells derived from ART-treated HIV-1-infected humanized BLT mice.
Human resting CD4+ T cells from ten mice were isolated from blood, thymic organoid, lung, spleen, bone marrow, lymph nodes and liver. Isolated human resting CD4+ T cells were pooled, counted, split and treated in duplicate for 48 h with different IAPa (1 μM) or ICI (10 μg/ml) in monotherapy, or the IAPa/ICI combinations. Amounts of virions released from cells were quantified at the indicated time points by quantifying HIV RNA levels (HIV RNA copies/mL) in supernatant of cell culture using one-step reverse transcriptase quantitative real-time PCR (ABI custom TaqMan Assays-by-Design) according to the manufacturer's instructions. Primers were 5-[…]-3 and 5-[…]-3, and MGB probe 5-FAM-[…]-Q-3, where FAM is 6-carboxyfluorescein.
The experiment was carried out using the same agents as described above for Example 8.1 (with the exception that no birinapant was used).

[2] = tested on: CD4+ T cell line JLat 10.6; experiment: Cellular cytotoxicity (LDH assay and CellTiter Glo assay); type: cell-based, human; conditions: even at high concentration (20 μM), 72 h
Procedure: (§1) This experiment examined the cellular cytotoxicity of DEB10-1143 alone and DEB10-1143+ART on the human CD4+ T cell line JLat 10.6. DEB10-1143 was tested as well on human primary CD4+ T lymphocytes. Drug titration and kinetic studies were conducted.
(§2) Method: Cells (100,000 cells/100 μL) were treated in triplicate for 72 h with increasing concentrations of DEB10-1143 (0 to 20 μM) used alone or in combination with ART (20 μM TDF, 10 μM FTC and 1 μM Raltegravir). ART and DEB10-1143 were added simultaneously to cells. Saponin (0.5%) was used as positive control due to its ability to induce cell death.
(§3) Cellular cytotoxicity was analyzed by Lactate dehydrogenase (LDH) assay and CellTiter Glo assay.
(§4) LDH assay: LDH is an oxidoreductase enzyme that catalyses the interconversion of pyruvate and lactate. Cells release LDH into the bloodstream after tissue damage or red blood cell hemolysis. […] In this particular assay, LDH reduces NAD to NADH, which is specifically detected by colorimetric (490 nm) assay.
(§5) CellTiter Glo assay: The CellTiter-Glo® 2.0 Assay determines the number of viable cells in culture by quantifying ATP, which indicates the presence of metabolically active cells. Luminescence readout is directly proportional to the number of viable cells in culture. Data are expressed in luminescence (RLU) in triplicate

[3] = tested on: primary CD4+ T-lymphocytes; experiment: as above; type: cell-based, human; conditions: even at high concentration (20 μM), 72 h
Procedure: as §1, §2, §3, §4, §5

2D10 cells = experiment: Cytotoxicity by LDH assay in 2D10 cells; type: cell-based; conditions: 0 to 20 μM, 48 h
Procedure: Drug titration was conducted.
For analysis of cell viability, cells (100,000 cells/100 μL) were treated in triplicate for 48 h with increasing concentrations of Debio-1143 or other known LRAs (0 to 20 μM). Cellular cytotoxicity was analyzed by Lactate dehydrogenase (LDH) assay. LDH is an oxidoreductase enzyme that catalyzes the interconversion of pyruvate and lactate. Cells release LDH into the bloodstream after tissue damage or red blood cell hemolysis. Since LDH is a fairly stable enzyme, it has been widely used to evaluate the presence of damage and toxicity of tissue and cells. In this particular, LDH reduces NAD to NADH, which is specifically detected by colorimetric (490 nm) assay.

CN[C@@H](C)C(=O)N[C@H]1CN(C(=O)CC(C)C)CC[C@H]2CC[C@@H](C(=O)NC(c3ccccc3)c3ccccc3)N2C1=O [Debio 1143, (5S,8S,10aR)-N-benzhydryl-5-((S)-2-(methylamino)propanamido)-3-(3-methylbutanoyl)-6-oxodecahydropyrrolo[1,2-a][1,5]diazocine-8-carboxamide]
latency reversal class (HIV RNA copies/ml in supernatant) ([1]; IAPa 1 μM monotherapy (0.1% DMSO, no ICI), 48 h): 2 (Between 2501 and 5000 RNA copies/ml were classified as “2”) | latency reversal class (HIV RNA copies/ml in supernatant) ([1]; IAPa 1 μM with Control IgG1, 48 h): 2 (Between 2501 and 5000 RNA copies/ml were classified as “2”) | latency reversal class (HIV RNA copies/ml in supernatant) ([1]; IAPa 1 μM with Control IgG2, 48 h): 2 (Between 2501 and 5000 RNA copies/ml were classified as “2”) | cytotoxicity [2]: no significant cytotoxicity | cytotoxicity [3]: no significant cytotoxicity | cytotoxicity (LDH assay) (2D10 cells): did not exhibit any cytotoxicity
